Experiment in all cases: DTP human tumour cell line panel, 48 h
In test [1] the test system is Malme-3M.
For test [2], the system named is Hs-578T.
For test [3], the system named is NCI/ADR-RES.
Test [4] concerns SN12C.
Test [5] has as its system A498.
Test [6] concerns SK-OV-3.
Test [7] deals with U-251.
Test [8] has as its system HCT-15.
The subject of test [9] is SW-620.
For test [10], the system named is SNB-19.
Test [11] relates to CCRF-CEM.
Test [12] deals with MDA-MB-231.
Test [13] concerns NCI-H226.
Test [14] deals with DU-145.
Test [15] relates to OVCAR-8.
The subject of test [16] is CAKI-1.
The subject of test [17] is NCI-H460.
The test system of test [18] is KM12.
Test [19] has as its system COLO 205.
Test [20] concerns SR.

SMILES strings stand for the structures.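 Dose response: 5 concentrations. Exposure: 48 h. Format: 96-well plates. Endpoint: linear interpolation; highest concentration if not reached. GI50 = concentration required for 50% inhibition of growth.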 Activity calls are given as the source filed them. Rule as the data show it: active = GI50 up to about 1.1 µM and inactive = higher.

Turning to `CCC12CCCN3CCc4c(n(c5ccccc45)C(O)(C(=O)OC)C1)C32` (stereo not given), the GI50 in [1], in test [2], in test [3], in test [4], in test [5] and in test [6] was > 100 µM (inactive) each time. Also, the GI50 was > 100 µM (inactive) in [7]; more than 100 µM in [8]; > 100 µM (inactive) in [9]; > 100 µM (inactive) in [10]; > 100 µM (inactive) in test [11]; > 100 µM (inactive) in test [12]. The GI50 in [13], in test [14], in [15], in [16], in [17] and in test [18] was > 100 µM (inactive) throughout. In [19], the GI50 is > 100 µM (inactive).

`COc1cccc([C@@H]2CC(=O)c3cc4c(cc3N2)OCO4)c1`: the GI50 in [2] was 64.9 µM (inactive); in test [3] it was > 100 µM (inactive); in test [4] it was > 100 µM (inactive); in [5], > 100 µM (inactive); in test [6], > 100 µM (inactive); in test [7], > 100 µM (inactive). In addition, the GI50 in test [8] was more than 100 µM; in [9], > 100 µM (inactive); in test [10] it was > 100 µM (inactive); in test [11], > 100 µM (inactive); in [12], > 100 µM (inactive); in [13] it was > 100 µM (inactive). The GI50 in test [14], in test [15], in test [16], in test [18] and in [19] was > 100 µM (inactive) each time.

For the compound `CCOC(=O)/C(=C\c1ccc(C#N)cc1)C(C)=O`, the GI50 is 15.2 µM (inactive) in [1]; 24.3 µM (inactive) in test [2]; 28.1 µM (inactive) in [3]; 25.2 µM (inactive) in test [4]; 13.3 µM (inactive) in test [5]; 40.8 µM (inactive) in [6]. In addition, the GI50 in test [7] was 16.2 µM (inactive); in [8], 18.2 µM; in test [9] it was 21.2 µM (inactive); in test [10], 45.1 µM (inactive); in test [11] it was 13.5 µM (inactive); in [12], 15.6 µM (inactive). Moreover, the GI50 was 35.1 µM (inactive) in test [13]; 18.2 µM (inactive) in test [14]; 36.6 µM (inactive) in [15]; 22.2 µM (inactive) in test [16]; 28.8 µM (inactive) in test [17]; 18.6 µM (inactive) in test [18]. Further, in test [19], the GI50 is 31.3 µM (inactive).

In the case of `C1CSCCCSCCCSCCCSCCCSCCCSCCCSCCCSC1`, the GI50 in test [1], in test [2], in [3], in test [4], in test [5] and in [6] was > 100 µM (inactive) throughout. In addition, the GI50 in test [7] is > 100 µM (inactive); in test [8] it was more than 100 µM; in test [9], > 100 µM (inactive); in [10] it was > 100 µM (inactive); in [11], > 100 µM (inactive); in test [12], > 100 µM (inactive). In addition, the GI50 was 82.2 µM (inactive) in [13]; > 100 µM (inactive) in test [14]; > 100 µM (inactive) in test [15]; > 100 µM (inactive) in test [16]; > 100 µM (inactive) in test [17]; > 100 µM (inactive) in [18]. Also, in test [19], the GI50 is > 100 µM (inactive).

As to `CC1[C@@H](OCc2ccccc2)COC(=O)N1Cc1ccccc1` (stereo not given in full), the GI50 in test [1] is > 100 µM (inactive); in test [2], > 100 µM (inactive); in test [3], 49.4 µM (inactive); in test [4], > 100 µM (inactive); in test [6], > 100 µM (inactive); in [7], > 100 µM (inactive). In addition, the 50% growth inhibitory concentration (GI50) in test [8] is more than 100 µM; in test [9], > 100 µM (inactive); in test [10], > 100 µM (inactive); in test [11], > 100 µM (inactive); in test [12] it was > 100 µM (inactive); in [13] it was > 100 µM (inactive). Also, the GI50 in test [14], in test [15], in test [20], in test [18] and in [19] was > 100 µM (inactive) throughout.

`CC(=O)OCCCCn1cc(Cn2ccc(=O)n(Cc3cn(CCCCOC(C)=O)nn3)c2=O)nn1`: the GI50 in test [1], in [2], in test [3], in test [4], in test [5] and in [6] was > 100 µM (inactive) each time. Also, the GI50 was > 100 µM (inactive) in test [7]; more than 100 µM in test [8]; > 100 µM (inactive) in test [9]; > 100 µM (inactive) in test [10]; > 100 µM (inactive) in test [11]; > 100 µM (inactive) in test [12]. Also, the GI50 in test [13], in [14], in test [15], in test [16], in test [18] and in test [19] was > 100 µM (inactive) throughout.

Regarding `C=C1c2ccccc2C(=O)c2c1c1c(C(=O)OC)c(O)ccc1n2Cc1ccccc1`, the GI50 in [1] is 0.445 µM (active); in [2] it was 0.297 µM (active); in test [3], 0.235 µM (active); in test [4] it was 0.312 µM (active); in test [6], 0.346 µM (active); in test [7], 0.333 µM (active). Besides, the GI50 in test [8] is 0.232 µM; in [9], 0.342 µM (active); in [10], 0.35 µM (active); in test [11], 0.203 µM (active); in [12], 0.355 µM (active); in [14] it was 0.242 µM (active). For the same compound, the GI50 in [15] was 0.245 µM (active); in [20], 0.132 µM (active); in [16], 0.407 µM (active); in test [17] it was 0.908 µM (active); in test [18], 0.459 µM (active); in test [19], 1.97 µM (inactive).

As to `O=S(=O)(c1ccccc1)n1c(C(O)c2ccccc2)cc2ccccc21` (stereo not given), the GI50 in test [1] is 18.3 µM (inactive); in test [2] it was 10.9 µM (inactive); in [3], 13.1 µM (inactive); in [5], 10.2 µM (inactive); in test [6], 15 µM (inactive); in test [7] it was 16.7 µM (inactive). For the same compound, the GI50 in test [8] is 21.3 µM; in test [9] it was 24 µM (inactive); in test [10], 13.7 µM (inactive); in [11], 9.46 µM (inactive); in test [12], 17.3 µM (inactive); in test [13], 13.1 µM (inactive). Also, the GI50 in test [14] is 33.9 µM (inactive); in test [15] it was 16.9 µM (inactive); in test [16], 17.7 µM (inactive); in test [17], 25.3 µM (inactive); in test [18], 15 µM (inactive); in test [19], 15.9 µM (inactive).

(Values after ChEMBL document CHEMBL1201862, “PubChem BioAssay data set” (2004).)
